“And” between values parts separate entries of the source, which are not always exact repeats. Identical values can stand only once. Toxic doses and inconclusive results are not listed. The calls were made as follows: active = survival T/C of 150% or more; inactive = T/C below 125% in these data.
System: P388 leukemia ip, CD2F1 mice, survival T/C
Experiment: NCI In Vivo Anticancer Drug Screen. Data for tumor model P388 Leukemia (intraperitoneal) in CD2F1 (CDF1) mice
Settings: endpoint: median survival time, higher = longer survival
Outline: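 Mice carrying the transplanted tumor received test compound or vehicle. Survival was recorded in each group, and the value is the treated-group measurement divided by that of the vehicle-treated control group.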

[1] = dose: 100.0 mg/kg/injection, schedule: Q04DX003 (ip), vehicle: saline with Tween-80
[2] = dose: 200.0 mg/kg/injection, schedule: Q04DX003 (ip), vehicle: saline with Tween-80
[3] = dose: 400.0 mg/kg/injection, schedule: Q04DX003 (ip), vehicle: saline with Tween-80
[4] = dose: 60.0 mg/kg/injection, schedule: Q01DX005 (ip), vehicle: saline with Tween-80
[5] = dose: 120.0 mg/kg/injection, schedule: Q01DX005 (ip), vehicle: saline with Tween-80
[6] = dose: 240.0 mg/kg/injection, schedule: Q01DX005 (ip), vehicle: saline with Tween-80
[7] = dose: 25.0 mg/kg/injection, schedule: Q01DX009 (ip), vehicle: saline with Tween-80
[8] = dose: 50.0 mg/kg/injection, schedule: Q01DX009 (ip), vehicle: saline with Tween-80
[9] = dose: 100.0 mg/kg/injection, schedule: Q01DX009 (ip), vehicle: saline with Tween-80
[10] = dose: 200.0 mg/kg/injection, schedule: Q01DX009 (ip), vehicle: saline with Tween-80
[11] = dose: 60.0 mg/kg/injection, schedule: Q01DX005 (ip), vehicle: Klucel (hydroxypropylcellulose) (HPC)
[12] = dose: 120.0 mg/kg/injection, schedule: Q01DX005 (ip), vehicle: Klucel (hydroxypropylcellulose) (HPC)
[13] = dose: 240.0 mg/kg/injection, schedule: Q01DX005 (ip), vehicle: Klucel (hydroxypropylcellulose) (HPC)
[14] = dose: 50.0 mg/kg/injection, schedule: Q01DX005 (ip), vehicle: saline with Tween-80
[15] = dose: 50.0 mg/kg/injection, schedule: Q01DX009 (ip), vehicle: saline
[16] = dose: 100.0 mg/kg/injection, schedule: Q01DX009 (ip), vehicle: saline
[17] = dose: 200.0 mg/kg/injection, schedule: Q01DX009 (ip), vehicle: saline
[18] = dose: 50.0 mg/kg/injection, schedule: Q01DX005 (ip), vehicle: saline
[19] = dose: 200.0 mg/kg/injection, schedule: Q01DX005 (ip), vehicle: saline

Measured: T/C

C1=CCC2CSCC2C1 (centres undefined)
inactive: dose: 37.5 mg/kg/injection, schedule: Q01DX001 (ip), vehicle: saline sonified 100 % of control | dose: 75.0 mg/kg/injection, schedule: Q01DX001 (ip), vehicle: saline sonified 105 % of control

NC(=O)c1ccc(=O)n(C2OC(CO)C(O)C2O)c1 (centres undefined)
inactive: dose: 50.0 mg/kg/injection, schedule: Q04DX003 (ip), vehicle: saline with Tween-80 102 % of control | [1] 102 % of control | [2] 100 % of control | [3] 102 % of control

O=C1NCCc2ccc(cc2)OCCC(=O)N2CCCC12 (centres undefined)
inactive: dose: 35.0 mg/kg/injection, schedule: Q01DX005 (ip), vehicle: Klucel (hydroxypropylcellulose) (HPC) 107 % of control | dose: 70.0 mg/kg/injection, schedule: Q01DX005 (ip), vehicle: Klucel (hydroxypropylcellulose) (HPC) 104 % of control | dose: 140.0 mg/kg/injection, schedule: Q01DX005 (ip), vehicle: Klucel (hydroxypropylcellulose) (HPC) 98 % of control

COc1cc([C@H]2c3c(cc(OC)c(OC)c3OC)CC3COC(=O)[C@@H]32)cc2c1OCO2 (some centres undefined)
inactive: [4] 98 % of control | [5] 92 % of control | [6] 90 % of control

COC1/C=C/OC2(C)Oc3c(C)c(O)c4c(O)c(c(/C=N/N5CC(C)N(C(=O)c6ccccc6)C(C)C5)c(O)c4c3C2=O)NC(=O)C(C)=C/C=C/C(C)C(O)C(C)C(O)C(C)C(OC(C)=O)C1C (centres undefined)
inactive: dose: 12.5 mg/kg/injection, schedule: Q01DX009 (ip), vehicle: saline with Tween-80 124 % of control | [7] 124 % of control | [8] 118 % of control | [9] 116 % of control | [10] 109 % of control

CC1([N+](=O)[O-])C(=O)C2(N3CCCC3)CCCC2C1c1ccccc1 (centres undefined)
inactive: [11] 99 % of control | [12] 91 % of control | [13] 90 % of control

O=C1[C@@H]2[C@H](C(=O)N1c1ccccc1)[C@H]1CC[C@H]2N1C(=O)c1ccccc1
inactive: [4] 96 % of control | [5] 100 % of control | [6] 88 % of control

O=C(CCCCCCC(=O)ON1C(=O)CCC1=O)ON1C(=O)CCC1=O
inactive: [14] 122 % of control

Cc1cccc([B-]23OCC[N+]2(CNC(=O)C2=C(O)C4(O)C(=O)C5=C(O)c6c(O)cccc6C(C)(O)C5CC4C(N(C)C)C2=O)CCO3)c1 (centres undefined)
inactive: dose: 50.0 mg/kg/injection, schedule: Q01DX005 (ip), vehicle: Klucel (hydroxypropylcellulose) (HPC) 97 % of control | dose: 100.0 mg/kg/injection, schedule: Q01DX005 (ip), vehicle: Klucel (hydroxypropylcellulose) (HPC) 111 % of control | dose: 200.0 mg/kg/injection, schedule: Q01DX005 (ip), vehicle: Klucel (hydroxypropylcellulose) (HPC) 118 % of control

CC(=O)Nc1ccc(Nc2ccc(NCCO)c3c2C(=O)c2c(O)ccc(O)c2C3=O)cc1
inactive: dose: 25.0 mg/kg/injection, schedule: Q04DX002 (ip), vehicle: saline with Tween-80 96 % of control | dose: 50.0 mg/kg/injection, schedule: Q04DX002 (ip), vehicle: saline with Tween-80 96 % of control | dose: 100.0 mg/kg/injection, schedule: Q04DX002 (ip), vehicle: saline with Tween-80 100 % of control | dose: 200.0 mg/kg/injection, schedule: Q04DX002 (ip), vehicle: saline with Tween-80 100 % of control

CC(C)(C)c1ccc(C(c2ccc(C(C)(C)C)cc2)C(Cl)(Cl)Cl)cc1
inactive: [1] 104 % of control | [2] 100 % of control | [3] 100 % of control

Cc1cccc(Cl)c1NC(=O)CCl
inactive: dose: 12.5 mg/kg/injection, schedule: Q01DX009 (ip), vehicle: Klucel (hydroxypropylcellulose) (HPC) 101 % of control | dose: 25.0 mg/kg/injection, schedule: Q01DX009 (ip), vehicle: Klucel (hydroxypropylcellulose) (HPC) 101 % of control | dose: 50.0 mg/kg/injection, schedule: Q01DX009 (ip), vehicle: Klucel (hydroxypropylcellulose) (HPC) 93 % of control | dose: 100.0 mg/kg/injection, schedule: Q01DX009 (ip), vehicle: Klucel (hydroxypropylcellulose) (HPC) 101 % of control

CC(Cc1ccc2c(c1)OCO2)NN (centres undefined)
inactive: dose: 3.12 mg/kg/injection, schedule: Q01DX005 (ip), vehicle: saline 102 % of control | dose: 6.25 mg/kg/injection, schedule: Q01DX005 (ip), vehicle: saline 96 % of control | dose: 12.5 mg/kg/injection, schedule: Q01DX005 (ip), vehicle: saline 98 % of control

Cc1ccc(S(=O)CC(O)CO)cc1 (centres undefined)
inactive: [15] 95 % of control | [16] 101 % of control | [17] 108 % of control

CCOC(=O)C(C)P(=O)(OC)OC (centres undefined)
inactive: [18] 100 % of control | dose: 100.0 mg/kg/injection, schedule: Q01DX005 (ip), vehicle: saline 98 % of control | [19] 103 % of control

COC(=S)NC(=O)c1ccc(Cl)c(Cl)c1
inactive: [7] 108 % of control | [8] 107 % of control | [9] 99 % of control | [10] 110 % of control

CC1(O)Cc2c(O)c3c(c(O)c2CC1O)C(=O)C=CC3=O (centres undefined)
inactive: dose: 3.13 mg/kg/injection, schedule: Q04DX003 (ip), vehicle: distilled water + Tween-80 100 % of control | dose: 6.25 mg/kg/injection, schedule: Q04DX003 (ip), vehicle: distilled water + Tween-80 100 % of control | dose: 12.5 mg/kg/injection, schedule: Q04DX003 (ip), vehicle: distilled water + Tween-80 97 % of control | dose: 25.0 mg/kg/injection, schedule: Q04DX003 (ip), vehicle: distilled water + Tween-80 100 % of control and 96 % of control

O=[N+]([O-])c1ccc(C2=C[P+](c3ccccc3)(c3ccccc3)c3ccccc3O2)cc1
inactive: dose: 0.78 mg/kg/injection, schedule: Q01DX005 (ip), vehicle: Klucel (hydroxypropylcellulose) (HPC) 106 % of control | dose: 1.56 mg/kg/injection, schedule: Q01DX005 (ip), vehicle: Klucel (hydroxypropylcellulose) (HPC) 115 % of control | dose: 3.12 mg/kg/injection, schedule: Q01DX005 (ip), vehicle: Klucel (hydroxypropylcellulose) (HPC) 117 % of control | dose: 6.25 mg/kg/injection, schedule: Q01DX005 (ip), vehicle: Klucel (hydroxypropylcellulose) (HPC) 112 % of control

CN1CN=C(Sc2ccc(Cl)cc2[N+](=O)[O-])NC1
inactive: [15] 89 % of control | [16] 100 % of control | [17] 104 % of control

O=C(c1ccc2c(c1)OCO2)N1OC2C=CC1CC2 (centres undefined)
inactive: [8] 98 % of control | [9] 96 % of control | [10] 98 % of control

CCc1nnc2c(c(=O)n(C)c(=O)n2C)[n+]1[O-]
inactive: dose: 20.0 mg/kg/injection, schedule: Q01DX001 (ip), vehicle: Klucel (hydroxypropylcellulose) (HPC) 106 % of control | dose: 40.0 mg/kg/injection, schedule: Q01DX001 (ip), vehicle: Klucel (hydroxypropylcellulose) (HPC) 106 % of control | dose: 80.0 mg/kg/injection, schedule: Q01DX001 (ip), vehicle: Klucel (hydroxypropylcellulose) (HPC) 112 % of control | dose: 100.0 mg/kg/injection, schedule: Q01DX001 (ip), vehicle: Klucel (hydroxypropylcellulose) (HPC) 109 % of control

O=Cc1cc2c(Cl)nccc2o1
inactive: [11] 105 % of control | [12] 102 % of control | [13] 104 % of control

Cc1oc2ccccc2c(=O)c1CN1CCN(c2ccccc2)CC1
inactive: dose: 60.0 mg/kg/injection, schedule: Q01DX005 (ip), vehicle: saline 103 % of control | dose: 120.0 mg/kg/injection, schedule: Q01DX005 (ip), vehicle: saline 101 % of control | dose: 240.0 mg/kg/injection, schedule: Q01DX005 (ip), vehicle: saline 92 % of control

CC1=NN(C(=O)c2ccncc2)C(=O)C1N=Nc1ccc(S(=O)(=O)N=C(N)N)cc1 (centres undefined)
inactive: [8] 97 % of control | [9] 94 % of control | [10] 90 % of control

COc1ccc2c(n1)Sc1nc3ccccc3nc1N2
inactive: [4] 100 % of control | [5] 100 % of control | [6] 101 % of control

O=C(NC(CC1CCC2OCOC2C1)C(=O)O)c1ccccc1 (centres undefined)
inactive: [4] 111 % of control | [5] 102 % of control | [6] 105 % of control

O=C(O)CSC(=S)CCCCCCCCCCC(=S)SCC(=O)O
inactive: dose: 12.5 mg/kg/injection, schedule: Q01DX005 (ip), vehicle: saline with Tween-80 111 % of control | dose: 25.0 mg/kg/injection, schedule: Q01DX005 (ip), vehicle: saline with Tween-80 109 % of control | [14] 116 % of control and 118 % of control

COC(C(=O)C1=C2Oc3c4c(cc(O)c3C(=O)C2C2=C(CCCC2)C1=O)OC(C)(C)C=C4)C(C)CCC=C(C)C (centres undefined)
inactive: [18] 112 % of control | [19] 90 % of control

From PubChem BioAssay AID330 (DTP/NCI, 2004)
